Assay: Plasma pharmacokinetics of raf ODN after i.v. injection
Assay type: in vivo, Balb/c nu/nu mice
Details: 30 mg/kg i.v.
Protocol: FIG. 3: The plasma concentration-time profile of LE-ATG-AS raf ODN (SEQ ID NO:1), 30 mg/kg LE-ATG-AS raf ODN (SEQ ID NO:1) (top panel) or TG-AS raf ODN (SEQ ID NO:1) (middle panel) was administered […]. in […] nu/nu mice. Blood samples were collected from retro-orbital sinus as indicated times after injection and the ODNs in plasma samples were extracted and analyzed by denaturing gel electrophoresis as explained in the experimental procedures. St standards prepared by spiking known amounts of ATG-AS raf ODN (SEQ ID NO:1) in blank plasma. Top panel: Samples were diluted before electrophoresis as follows: lane 1, 12×; lanes 2 and 3, 4×; lanes 4 and 5, 3.3×; lane 6, 2×; lane 7, 1.4×; lane 8, 1.3×; and lane 9, I×. […] Additional standards (1.4 to >2 log range) were used to determine ODN concentration over a 24 hour period (data not shown). Middle panel: Samples were diluted before loading as follows: lane 1, 4×, lanes 2 and 3, 2×, lanes 4, 5 and 6, I×; lane 7, 0.75×, lanes 8 and […], 0.6×. […]
The extracts were loaded on to 20% polyacrylamide/3 M urea gels and electrophoresed in TBE buffer. […] The autoradiographs were scanned using a computer program (ImageQuant software, Molecular Dynamics, Sunnyvale, Calif., and USA), and the amounts of ATG-AS raf ODN (SEQ ID NO:1) in various samples were calculated by comparison to standards.

## 5′-GTG-CTCCATTGATGC-3′ (antisense GTGCTCCATTGATGC; DNA, linkages s1 o12 s1 (s phosphorothioate, o phosphodiester), methylation of C not given here) [ATG-AS raf ODN, antisense ODN to translation initiation site of human c-raf-1 cDNA; one terminal base linkage at each end phosphorothioate]
At 5 min
  plasma concentration: 9.75 µg/mL
Free ODN
  only time at which intact ODN detectable in plasma: 5 min

From patent US7262173B2, “Chemosensitizing with liposomes containing oligonucleotides” (Georgetown University, priority 1997, dated 2007)
